According to patent US20080241115A1, “Use Of Mesenchymal Stem Cells Genetically Modified To Express A Suicide Gene For Treating A Cancer” (Ajou University Industry-Academic Cooperation Foundation, priority 2005, published 2008):

How the values were obtained:
[1] = system: 293T/CD cells; assay: Suicide effect of CD gene, MTT viability assay and phase contrast microscopy; format: cell-based
Description: (§1) Normal 293T cells and 293T/CD cells transformed with pMSCV-puro/CD prepared in Step 1 were plated at a density of 2,000 cells/well in a 24-well plate containing DMEM with 10% fetal bovine serum. After 24 hours, 5-FC was added to the cells at various concentrations (0-10 mM). The media was replaced with fresh medium containing 5-FC every 2 days for 1 week. […] The viability was estimated by measuring mitochondria NADPH activity by 3-(4,5-dimethyl-thiazol-2-yl)-2,5-diphenyltetrazolium bromide (MTT) assay. The cells were incubated in 200 μl of […] MTT (Sigma, U.S.A) in PBS for 4 hours. The solution was replaced with 200 μl of absolute dimethyl sulfoxide (DMSO, Sigma). After incubated at room temperature for 15 minutes, the absorbance at 540 nm was measured with an ELISA reader (Molecular Probe, U.S.A). The data in FIG. 4B are presented as averages ±S.E. with respect to that of the cells grown in the absence of 5-FC from 3 independent experiments.

[2] = system: 293T cells; assay: Suicide effect control, MTT viability assay; format: cell-based; conditions: normal 293T cells, 1,000 μM 5-FC
Description: as §1

[3] = system: MSC/CD cells; assay: Suicide effect of CD gene in MSC/CD cells, MTT assay and light microscopy; format: cell-based, human
Description: CD-expressing retrovirus was used to deliver the CD gene into MSCs. MSCs obtained in Step 1 of Example 1 were grown in growth medium (DMEM containing 10% FBS, 100 units/ml penicillin and 100 μg/ml streptomycin) at 37° C. and 5% CO2 until 70% confluence. CD-expressing retrovirus prepared in Example 2 was added to the culture with 1:1 dilution in the growth medium in the presence of 8 μg/ml polybrene (Sigma) for 8 hours and in the fresh growth medium for 16 hours. After the retroviral transduction was repeated 2 more times, the cells were split into 1:3 in growth medium containing 4 μg/ml puromycin (Sigma) for 14 days. The survived cells were pooled, and used in the subsequent experiments.
(§2) MSC/CD or MSC cells were plated in growth medium at a density of 5,000 cells/well in a 6-well plate one day before exposure to 5-FC. The medium was replaced every 2 days with fresh growth medium containing 0-10 mM 5-FC for 2 weeks. […] The viability was estimated by measuring mitochondria NADPH activity using MTT assay as mentioned above with 293T/CD cells. The data are presented as averages ±S.E with respect to that of the untreated cells from 3 independent experiments (FIG. 6B).

[4] = system: MSC cells; assay: Suicide effect control in MSCs, MTT assay; format: cell-based, human; conditions: up to 1,000 μM 5-FC, 2 weeks
Description: as §2

[5] = system: C6 glioma cells; assay: Cytotoxic effect of 5-FU on glioma cells, MTT assay; format: cell-based; conditions: C6, 5-FU 1 week
Description: (§3) To verify that 5-FU produced by MSC/CD is sufficient to induce cell death in various glioma cells, C6 (KCLB No. 10107), U373 (KCLB No. 30017), U87 (KCLB No. 30014) cells were freshly obtained from KCLB (Korean cell line bank) and plated in 96-well plates in growth medium at a density of 100 cells/well, 100 cells/well, and 500 cells/well, respectively. After 24 hours, 5-FU was added to the cells at 0.01-100 μM. After 1 week, cell viability was estimated by MTT assay as described above.

[6] = system: U373 glioma cells; assay: as above; format: cell-based; conditions: U373, 5-FU 1 week
Description: as §3

[7] = system: U87 glioma cells; assay: as above; format: cell-based; conditions: U87, 5-FU 1 week
Description: as §3

Structure (SMILES) | viability by phase contrast microscopy ([1]; 293T/CD cells, 1,000 μM 5-FC) | concentration from which cell death was detected ([1]; 293T/CD cells, 5-FC for 1 week, MTT) | IC50 ([1]; Homo sapiens, HEK-293T, 168 h, 293T/CD cells, 5-FC for 1 week, MTT, read-out: IC50 of cell death) | cell death [2] | IC50 ([3]; Homo sapiens, 336 h, MSC/CD cells, 5-FC for 2 weeks, MTT, read-out: IC50 of cell death) | cell death by light microscopy ([3]; MSC/CD cells, 1,000 μM 5-FC for 2 weeks) | concentration from which cell death was detected ([3]; MSC/CD cells, 5-FC for 2 weeks, MTT) | cell death [4] | concentration at which cell death reached plateau [5] | IC50 ([5]; C6 glioma, 168 h, read-out: IC50 of cell death) | IC50 ([6]; Homo sapiens, U373 MG, 168 h, read-out: IC50 of cell death) | concentration at which cell death reached plateau [6] | IC50 ([7]; Homo sapiens, U-87 MG, 168 h, read-out: IC50 of cell death) | concentration at which cell death reached plateau [7]
Nc1nc(=O)[nH]cc1F [5-FC, 5-fluorocytosine] | reduced | 10 µM | 296 µM | did not show cell death | 332 µM | almost died | 100 µM | did not show cell death |  |  |  |  |  | 
O=c1[nH]cc(F)c(=O)[nH]1 [5-FU, 5-fluorouracil] |  |  |  |  |  |  |  |  | 10 µM | 0.93 µM | 5.34 µM | 10 µM | 5.65 µM | 10 µM
